The text below walks through data of US4208426A, “Pyranochromone derivatives and therapeutic composition comprising same for treatment of allergic diseases” (Eisai Co., Ltd., priority 1977, dated 1980).

One assay deals with homologous PCA reaction. Briefly: Homologous passive cutaneous anaphylaxis (PCA) reaction. As to conditions: rat; for Inhibition effect of PCA reaction: oral. Type of assay: in vivo, rat (SD (Sprague-Dawley) strain). The procedure:
Anti-egg albumin rat serum in amount of 0.1 ml was intracutaneously injected to the shaved back of a mail rat of SD (Sprague-Dawley) strain weighing 200±30 g. The egg-albumin as antigen in amount of 5 mg/Kg were intravenously injected, together with 40 mg/Kg of dye (Evans blue) 24 hours after antiserum injection. The test materials were given at the respective times before antigen injection as 5% suspension in gum arabic in the case of oral administration (p. o.), while as a solution in physiological salt solution in the case of the intravenous injection (i. v.). The rat was sacrificed 30 minutes after the injection of the antigen, and the skin was removed. The amount of the dye leaked at the reaction locus was measured by extraction method according to Katayama et al.; Microbiol. Immunol. 22, 89-101 (1978), to determine the inhibiting rate on the homologous PCA reaction. There were elected, as the control, cromoglycate and ethyl 6,7-dihydro-6-methyl-8H-pyrano[3,2-g]chromone-2-carboxylate which are known in the art.
Regarding 6,7-dihydro-6,8,8,10-tetramethyl-8H-pyrano[3,2-g] chromone-2-carboxylic acid of this invention, there were determined, in the same manner, inhibition effect of PCA reaction when oral administration was carried out.

The conditions of assay [1]: cited from earlier work.
Assay [2] relates to actively sensitized rat peritoneal mast cells. The experiment in a line: Histamine release from actively sensitized rat peritoneal mast cells mediated by antigen-antibody reaction. As to conditions: Mast cell, egg-albumine 10 μg/ml, 37° C., read-out: Inhibition rate of histamine release. Format: cell-based, rat (SD strain). The procedure:
(2) Histamine release from actively sensitized rat peritoneal mast cells mediated by antigen-antibody reaction
A male rate of SD strain weighing 200-400 g was used in this experiment. The sensitization of rats was performed by the method according to Kusner et al.; J. Pharmcol. & Exper. Ther, 184, 41-44 (1973). The mast cells were isolated 14 days after the sensitization by the method according to Johnson, et al.; Am. J. Physiol. 216, 453-459 (1969). The number of the mast cells was adjusted to 2×10^5 /ml. Each one milliliter of the cell suspension was divisionally poured into siliconized test tubes, and placed in an incubator adjusted to 37° C. The egg-albumine, as antigen, was added thereto at the final concentration of 10 μg/ml. At the same time of the addition of antigen, there is added sodium 6,7-dihydro-6,8,8,10-tetramethyl-8H-pyrano[3,2-g] chromone-2-carboxylate according to this invention in the respective concentrations.
The amount of histamine released from the mast cells was determined fluorimetrically according to Suzuki's method [Keio Igaku, 50, 263-270 (1973) Japan].

The structures appear in SMILES notation.

Regarding `CCOC(=O)c1cc(=O)c2cc3c(cc2o1)OCCC3C` (stereo not shown) [ethyl 6,7-dihydro-6-methyl-8H-pyrano[3,2-g]chromone-2-carboxylate, reference compound], in the assay on homologous PCA reaction (20 mg/Kg p.o., before one hour), the “Inhibition rate of PCA reaction” value was determined as 23.7%.

`O=C(O)c1cc(=O)c2c(OCC(O)COc3cccc4oc(C(=O)O)cc(=O)c34)cccc2o1` [Chromoglycate, reference compound]: the “Inhibition rate of PCA reaction” value worked out at 88.6% with homologous PCA reaction (6 mg/Kg i.v., at the same time) and 0% in the assay with homologous PCA reaction (20 mg/Kg p.o., before one hour). In assay [1], the “Effect on oral administration” value is “not effective when it is orally administered”.

Consider `Cc1c2c(cc3c(=O)cc(C(=O)O)oc13)C(C)CC(C)(C)O2` (stereo not shown) [6,7-Dihydro-6,8,8,10-tetramethyl-8H-pyrano [3,2-g] chromone-2-carboxylic acid], for which the “Inhibition effect of PCA reaction, dose dependence” value with homologous PCA reaction (oral administration) is reported as “dose-dependent inhibiting effect”. The “Time of administration before antigen with the most remarkable inhibition effect of PCA reaction” value in the assay with homologous PCA reaction (oral administration) lay in the range of 15 to 30 min. Also, the “Inhibition effect of PCA reaction” value in the assay on homologous PCA reaction (1 mg/Kg, before 5 minutes) turned out to be 15.1%; with homologous PCA reaction (3 mg/Kg, before 5 minutes) it was 54.8%; in the assay with homologous PCA reaction (10 mg/Kg, before 2 minutes), 44.1%; in the assay on homologous PCA reaction (10 mg/Kg, before 5 minutes (dose series)), 78.5%; in the assay on homologous PCA reaction (10 mg/Kg, before 5 minutes (time-course series)), 62.2%; in the assay on homologous PCA reaction (10 mg/Kg, before 15 minutes) it was 82.0%. Besides, the “Inhibition effect of PCA reaction” value in the assay with homologous PCA reaction (10 mg/Kg, before 30 minutes) is 84.3%; with homologous PCA reaction (10 mg/Kg, before 60 minutes) it was 54.3%; with homologous PCA reaction (30 mg/Kg, before 5 minutes) it was 90.3%.

In the case of `CCOC(=O)c1cc(=O)c2c(C)c3c(c(C)c2o1)OC(C)(C)C(C)C3` (stereo not shown) [Ethyl 6,7-dihydro-5,7,8,8,10-pentamethyl-8H-pyrano[3,2-g]chromone-2-carboxylate], the “Inhibition rate of PCA reaction” value in the assay with homologous PCA reaction (20 mg/Kg p.o., before one hour) was 47.9%.

Consider `CCOC(=O)c1cc(=O)c2c(C)c3c(c(CC)c2o1)OC(C)(C)CC3C` (stereo not shown) [Ethyl 6,7-dihydro-10-ethyl-5,6,8,8-tetramethyl-8H-pyrano[3,2-g]chromone-2-carboxylate], for which, in the assay with homologous PCA reaction (20 mg/Kg p.o., before one hour), the “Inhibition rate of PCA reaction” value stood at 64.4%.

As to `CCOC(=O)c1cc(=O)c2cc3c(c(C)c2o1)OC(C)(C)CC3C` (stereo not shown) [Ethyl 6,7-dihydro-6,8,8,10-tetramethyl-8H-pyrano [3,2-g] chromone-2-carboxylate], the “Inhibition rate of PCA reaction” value in the assay on homologous PCA reaction (20 mg/Kg p.o., before one hour) turned out to be 63.8%.

In the case of `CCOC(=O)c1cc(=O)c2cc3c(c(OC)c2o1)OC(C)(C)CC3C` (stereo not shown) [Ethyl 6,7-dihydro-10-methoxy-6,8,8-trimethyl-8H-pyrano [3,2-g] chromone-2-carboxylate], in the assay with homologous PCA reaction (20 mg/Kg p.o., before one hour), the “Inhibition rate of PCA reaction” value is on record as 62.2%.

In general, inhibition refers to how much of the control response was suppressed. Regarding `Cc1c2c(cc3c(=O)cc(C(=O)O)oc13)C(C)CC(C)(C)O2` (stereo not shown) [Sodium 6,7-dihydro-6,8,8,10-tetramethyl-8H-pyrano [3,2-g] chromone-2-carboxylate], the “Inhibition rate of PCA reaction” value is 65.2% with homologous PCA reaction (0.4 mg/Kg i.v., at the same time) and 64.9% in the assay on homologous PCA reaction (20 mg/Kg p.o., before one hour). In assay [2] (0.2 μM), the inhibition at 0.2 µM came out at 48.2%. Also, the inhibition at 1 µM in assay [2] (1.0 μM) worked out at 66.1%. Further, the inhibition at 2 µM in assay [2] (2.0 μM) was determined as 73.2%. Moreover, in assay [2] (10.0 μM), the inhibition at 10 µM was 60.7%.
